Measured values taken from patent US20210308065A1, “REMOTE MODULATION OF BICONTINUOUS NANOSPHERES FOR CONTROLLED DELIVERY APPLICATIONS” (Northwestern University, priority 2020, published 2021).

Legend:
RAW 264.7 cells = assay: MTT cell viability assay; type: cell-based, murine
Method: Cell culture—RAW 264.7 cells (murine macrophage cell line) were acquired from American Type Culture Collection (ATCC, Rockville, Md., USA) were employed for cell culture experiments.
MTT assay—RAW 264.7 cells (2×10^5 cells/mL, 100 μL) were plated in each well of a black 96-well plate and adhered overnight. The adhered cells were treated with free PhA (DMSO: PBS, 1:3) or PhA loaded BCNs (PBS) or CT BCNs or PhA-CT BCNs and incubated for 4 h. […] Post irradiation, cells were incubated for predetermined time intervals and then added with MTT (5 mg/mL in PBS, 10 μL). After 4 h MTT incubation with cells, formazan crystal deposition in each well was dissolved in DMSO (200 μL) and the absorbance was measured at 560 nm. All the samples were analyzed in quadruplicates.
The percentage cell viability was calculated as:
% cell viability=(OD of treated sample/OD of untreated sample)*100.

[1] = Encapsulation efficiency in PEG-b-PPS BCNs; type: physicochemical; conditions: in PEG-b-PPS BCNs by FNP; hydrophilic cargo co-encapsulated with PhA
Method: Formation of PEG-b-PPS BCNs—BCNs were formed by flash nanoprecipitation (FNP) technique using a hand-driven CIJ mixer as described previously.^3, 14 10 mg of PEG-b-PPS polymer was dissolved in 500 μL of tetrahydrofuran (THF) and was impinged against 500 μL of Milli-Q water. After impingement the nascent BCNs were diluted in a 1.5 mL reservoir of Milli-Q water. THF was removed by vacuum desiccation overnight, resulting in a 5 mg/mL BCN formulation in water. In cases where hydrophobic cargo was loaded into BCNs, the cargo was dissolved along with the 10 mg of PEG-b-PPS polymer in the 500 μL of THF used for impingement. In cases where hydrophilic cargo was loaded into BCNs, the cargo was dissolved in the 500 μL of water used for impingement.
Loading and determination of encapsulation efficiency—The loading of hydrophilic molecules (Calcein, FITC-BSA, BODIPY-BSA) or hydrophobic molecules (Pheophorbide A or Camptothecin) in to BCNs was performed using FNP technique as stated above. Here, 500 μL of Calcien (1 mM) or fluorophore-BSA (2 mg/mL) in water was impinged against 500 μL of Pheophorbide A (0.2 mg/ml) or Camptothecin (0.6 mg/ml) in THF into an aqueous reservoir to form BCNs. After removal of THF via desiccation, BCNs were washed two times with distilled water by centrifugation (10,000×g, 10 min) to remove all the unencapsulated payloads and further resuspended in PBS or water for analysis. The amount of Pheophorbide A was determined by calculating absorbance at 666 nm. Calcein, FITC/BODIPY-BSA, and Camptothecin loading was analyzed by measuring fluorescence intensities at 470/509, 495/525, and 359/434 (excitation/emission, nm), respectively.

DN1 T cells = assay: Vaccination with BMDC treated ex vivo with MA or MA BCN, DN1 T cell activation and proliferation; type: in vivo, hCD1Tg mice; conditions: 1 or 6 weeks after intratracheal vaccination; MA BCN vs MA pulsed BMDC
Excerpt: One week before the 1 and 6 week timepoints, 3e6 DN1 T cells were adoptively transferred intravenously. DLN, lung, and spleen were obtained.

[2] = In vitro BCN degradation and release of payloads after irradiation; type: physicochemical; conditions: centrifugation
Method: In vitro BCN degradation and Release of payloads—In vitro degradation studies of PhA BCNs were performed under irradiation. Briefly, 200 μL of PhA BCNs (1 mg/ml) was transferred in to multiple wells of a 96 well black plate and then irradiated for 2.5 min at 50 mW/cm^2. The irradiated samples were immediately collected and centrifuged at 10,000×g for 10 min. After centrifugation, the supernatants and pellets were collected separately and analyzed using DLS and TEM as described above.
In vitro release of calcein, FITC-BSA, ethyl eosin and PhA from BCNs was measured after irradiation. 200 μL of PBS containing PhA BCNs co-loaded with calcein or FITC-BSA, or PhA BCNs and ethyl eosin BCNs, were transferred in to multiple wells of a 96 well black plate and then irradiated at 50 mW/cm^2 for 1.25, 2.5, 5 and 10 minutes. Post irradiation samples were centrifuged at 10,000×g for 10 min and supernatants were collected and further analyzed for amount released as described earlier. For PhA BCNs and ethyl eosin BCNs, % transmittance was measured using an M3 plate reader.

[3] = cited from earlier work

Compound: CC[C@@]1(O)C(=O)OCc2c1cc1n(c2=O)Cc2cc3ccccc3nc2-1 [free camptothecin, camptothecin]
- Cytotoxicity (MTT viability) (RAW 264.7 cells; free drug, camptothecin 0.63 μg/mL, 48 h): significantly more cytotoxic than non-irradiated CT-PhA-BCNs
- Cytotoxicity (MTT viability) (RAW 264.7 cells; non-irradiated, 24 h, three camptothecin concentrations (0.63, 1.56, 3.1 μg/mL)): dose-dependent cytotoxicity at 24 h
- Cytotoxicity (MTT viability) (RAW 264.7 cells; non-irradiated, 48 h, three camptothecin concentrations): high cytotoxicity regardless of concentration at 48 h

Compound: FITC-BSA: fluorescein-tagged bovine serum albumin
- Encapsulation efficiency [1]: 34±4%

Compound: O=C(O)CN(CC(=O)O)Cc1cc2c(cc1O)Oc1cc(O)c(CN(CC(=O)O)CC(=O)O)cc1C21OC(=O)c2ccccc21 [calcein]
- Encapsulation efficiency [1]: 6.7±1.9%

Compound: mycolic acid [MA]
- Activation and proliferation of DN1 T cells after vaccination with treated BMDC (DN1 T cells): differences in activation and proliferation of DN1 T cells 6 weeks after vaccination, but not 1 week after vaccination

Compound: pheophorbide A [PhA]
- Encapsulation efficiency [1]: 80.7±2.2%
- Release of photo-oxidizer into the supernatant after irradiation of loaded BCNs [2]: significantly greater amounts than the comparably ineffective ethyl eosin
- Cell viability (MTT) (RAW 264.7 cells; RAW 264.7 cells, with irradiation vs non-irradiated, 12 h after irradiation): significant cell death
- logP [3]: 6.93

Compound: CCOC(=O)c1ccccc1-c1c2cc(Br)c(=O)c(Br)c-2oc2c(Br)c([O-])c(Br)cc12.[K+] [ethyl eosin]
- Release of photo-oxidizer into the supernatant after irradiation of loaded BCNs [2]: comparably ineffective
